{
  "source": "paper PMC1769465",
  "about": "“Toxicity Assays in Nanodrops Combining Bioassay and Morphometric Endpoints” (PLoS ONE, 2007)",
  "key": {"[1]": {"system": "Drosophila melanogaster hsp22 promoter", "assay_type": "cell-based", "conditions": "for IC50: read-out: IC50 derived from KS curves, EGFP expression"}, "[2]": {"system": "HepG2 A10/hsp22 stress inducible clone", "test": "cells", "assay_type": "cell-based, human"}, "[3]": {"system": "HepG2 A10/hsp22 stress inducible clone", "conditions": "for IC50: read-out: IC50 (Cell Number)"}, "HepG2 cells [4]": {"system": "HepG2 cells", "design": "method as in PMID 16111842", "conditions": "read-out: IC50, neutral red quantification, cited from earlier work"}, "HepG2 cells [5]": {"system": "HepG2 cells", "design": "method as in PMID 16111842", "conditions": "read-out: IC50, MTT assay, cited from earlier work"}, "[6]": {"system": "EGFP expressing stress inducible clones", "design": "method as in PMID 16492392", "conditions": "6 h toxic induction combined with a 12–18 h recovery period; read-out: IC50 in 96 well format assays; cited from earlier work"}, "hsp22 promoter": {"system": "hsp22 promoter", "conditions": "cited from earlier work"}, "HepG2 cells [7]": {"system": "HepG2 cells", "conditions": "cited from earlier work"}, "HeLa cells": {"system": "HeLa cells", "conditions": "cited from earlier work"}, "[8]": {"system": "HepG2 A10/hsp22 stress inducible clone", "test": "cells", "conditions": "Homo sapiens, HepG2, read-out: IC50 (Cell Number)"}, "[9]": {"conditions": "calculated on Kolmogorov-Smirnov score curves"}, "[10]": {"conditions": "[…], linear regression, two independent experiments"}, "[11]": {"conditions": "same stress inducible clones, 96-well format"}},
  "note": "Where two headings read alike, the source gives them in different places.",
  "data": [
    {"compound": "[Cl][Cd][Cl]", "note": "[CdCl2, Cadmium chloride]", "values": [
      {"measurement": "dose at which EGFP expression could be detected", "setting": "[1]", "result": 50, "unit": "µM"},
      {"measurement": "dose at which hsp22 promoter activation (EGFP) disappeared", "setting": "[1]", "result": 100, "unit": "µM"},
      {"measurement": "dose of maximum activation of hsp22 promoter (EGFP expression)", "setting": "[1]", "result": "around 50 µM"},
      {"measurement": "IC50", "setting": "[1]; [9]", "result": 28, "unit": "µM"},
      {"measurement": "concentrations causing a decrease in Shape Index", "setting": "[2]; HepG2 A10 clone", "result": "above 20 µM"},
      {"measurement": "IC50 for Shape Index", "setting": "[2]; [10]", "result": 32, "unit": "µM"},
      {"measurement": "IC50", "setting": "[2]; […], linear regression, two independent experiments, read-out: IC50 for Cell Area", "result": 29, "unit": "µM"},
      {"measurement": "IC50", "setting": "[2]; […], linear regression, two independent experiments, read-out: IC50 for Cell Roundness", "result": 52, "unit": "µM"},
      {"measurement": "IC50 derived from KS curves, Shape Index", "setting": "[2]; [9]", "result": 48, "unit": "µM"},
      {"measurement": "IC50", "setting": "[2]; calculated on Kolmogorov-Smirnov score curves, read-out: IC50 derived from KS curves, Cell Area", "result": 25, "unit": "µM"},
      {"measurement": "IC50", "setting": "[2]; calculated on Kolmogorov-Smirnov score curves, read-out: IC50 derived from KS curves, Roundness", "result": 60, "unit": "µM"},
      {"measurement": "Cell Area after toxic insult (cell shrinkage)", "setting": "[2]; decrease from around 900 µm^2", "result": "around 400 µm^2"},
      {"measurement": "dose at which increase in Cell Roundness occurred", "setting": "[2]; late dose, particularly with cadmium", "result": 100, "unit": "µM"},
      {"measurement": "doses giving an obvious decrease in cell number", "setting": "[3]", "result": "greater than 20 µM"},
      {"measurement": "IC50", "setting": "[3]; [10]", "result": 83, "unit": "µM"},
      {"measurement": "IC50", "setting": "HepG2 cells [4]; HepG2, 5 h exposure", "result": 100, "unit": "µM"},
      {"measurement": "IC50", "setting": "HepG2 cells [4]; HepG2, 8 h exposure", "result": 80, "unit": "µM"},
      {"measurement": "IC50", "setting": "HepG2 cells [4]; HepG2, 24 h exposure", "result": 8, "unit": "µM"},
      {"measurement": "IC50", "setting": "HepG2 cells [5]; HepG2, 3 h exposure", "result": 500, "unit": "µM"},
      {"measurement": "IC50", "setting": "HepG2 cells [5]; HepG2, 5 h exposure", "result": 100, "unit": "µM"},
      {"measurement": "IC50", "setting": "HepG2 cells [5]; HepG2, 8 h exposure", "result": 40, "unit": "µM"},
      {"measurement": "IC50", "setting": "HepG2 cells [5]; HepG2, 24 h exposure", "result": 15, "unit": "µM"},
      {"measurement": "IC50", "setting": "[6]", "result": 50, "unit": "µM"},
      {"measurement": "induction windows", "setting": "hsp22 promoter; reported", "result": "10 to 100", "unit": "µM"},
      {"measurement": "concentration over which promoter activity gradually decreased", "setting": "hsp22 promoter; [11]", "result": "over 60 µM"},
      {"measurement": "peak expression of EGFP (concentration)", "setting": "hsp22 promoter; [11]", "result": "around 50 µM"},
      {"measurement": "concentration that elicited mild (20–25%) cytotoxicity", "setting": "HepG2 cells [7]; HepG2, 24 h exposure", "result": 40, "unit": "µM"},
      {"measurement": "concentration that elicited minimal (≤5%) cytotoxicity", "setting": "HepG2 cells [7]; HepG2, 24 h exposure", "result": 15, "unit": "µM"},
      {"measurement": "concentration that elicited more severe (approximately 50%) cytotoxicity", "setting": "HepG2 cells [7]; HepG2, 24 h exposure", "result": 60, "unit": "µM"},
      {"measurement": "IC50", "setting": "HepG2 cells [7]; read-out: IC50 for cytotoxicity, HepG2, 24 h exposure", "result": "60 to 70", "unit": "µM"},
      {"measurement": "CC50", "setting": "HeLa cells", "result": 50, "unit": "µM"}
    ]},
    {"compound": "C[n+]1ccc(-c2cc[n+](C)cc2)cc1", "note": "[Paraquat]", "values": [
      {"measurement": "EGFP expression with hsp22 promoter (in words)", "setting": "[1]; HepG2 A10 clone, 0.5 µM to 1 mM", "result": "did not induce any significant EGFP expression"},
      {"measurement": "IC50", "setting": "[2]; Homo sapiens, HepG2, 6 h, […], linear regression, two independent experiments, read-out: IC50 for Cell Area", "result": 44, "unit": "µM"},
      {"measurement": "IC50 for Shape Index", "setting": "[2]; [10]", "result": 29, "unit": "µM"},
      {"measurement": "Shape Index effect (in words)", "setting": "[2]; compared with Arsenate and Cadmium", "result": "did not induce as significant a decrease of this index"},
      {"measurement": "Cell Roundness effect (in words)", "setting": "[2]; compared with heavy metals", "result": "produced a less significant effect"},
      {"measurement": "Cell Area after toxic insult (cell shrinkage)", "setting": "[2]; decrease from around 900 µm^2", "result": 700, "unit": "µm^2"},
      {"measurement": "doses giving an obvious decrease in cell number", "setting": "[3]; human", "result": "greater than 20 µM"},
      {"measurement": "IC50", "setting": "[8]", "result": 88, "unit": "µM"}
    ]},
    {"compound": "Sodium arsenate", "values": [
      {"measurement": "dose at which EGFP Grey Level reached the KS score 0.2 threshold", "setting": "[1]", "result": 10, "unit": "µM"},
      {"measurement": "dose at which EGFP expression could be detected", "setting": "[1]", "result": 20, "unit": "µM"},
      {"measurement": "dose at which hsp22 promoter activation (EGFP) disappeared", "setting": "[1]", "result": 100, "unit": "µM"},
      {"measurement": "IC50", "setting": "[1]", "result": 19, "unit": "µM"},
      {"measurement": "Cell Area after toxic insult (cell shrinkage)", "setting": "[2]", "result": "around 400 µm^2"},
      {"measurement": "IC50 derived from KS curves, Roundness", "setting": "[2]", "result": "no significant Roundness effect"},
      {"measurement": "IC50 derived from KS curves, Shape Index", "setting": "[2]", "result": 32, "unit": "µM"},
      {"measurement": "IC50 for Shape Index", "setting": "[2]", "result": 24, "unit": "µM"},
      {"measurement": "concentrations causing a decrease in Shape Index", "setting": "[2]", "result": "above 20 µM"},
      {"measurement": "dose after which Shape Index distribution was significantly different from control (KS)", "setting": "[2]", "result": "> 50", "unit": "µM"},
      {"measurement": "dose at which Cell Area reached the KS score 0.2 threshold", "setting": "[2]", "result": 5, "unit": "µM"},
      {"measurement": "dose at which increase in Cell Roundness occurred", "setting": "[2]", "result": 100, "unit": "µM"},
      {"measurement": "IC50", "setting": "[2]; read-out: IC50 derived from KS curves, Cell Area", "result": 19, "unit": "µM"},
      {"measurement": "IC50", "setting": "[2]; read-out: IC50 for Cell Area", "result": 29, "unit": "µM"},
      {"measurement": "IC50", "setting": "[2]; read-out: IC50 for Cell Roundness", "result": 59, "unit": "µM"},
      {"measurement": "doses giving an obvious decrease in cell number", "setting": "[3]", "result": "greater than 20 µM"},
      {"measurement": "IC50", "setting": "[3]", "result": 85, "unit": "µM"},
      {"measurement": "induction windows", "setting": "hsp22 promoter", "result": "10 to 100", "unit": "µM"},
      {"measurement": "IC50", "setting": "HepG2 cells [7]", "result": "60 to 70", "unit": "µM"},
      {"measurement": "concentration that elicited mild (20–25%) cytotoxicity", "setting": "HepG2 cells [7]", "result": 55, "unit": "µM"},
      {"measurement": "concentration that elicited minimal (≤5%) cytotoxicity", "setting": "HepG2 cells [7]", "result": 15, "unit": "µM"},
      {"measurement": "concentration that elicited more severe (approximately 50%) cytotoxicity", "setting": "HepG2 cells [7]", "result": 70, "unit": "µM"}
    ]}
  ]
}
